Data on four molecules can be found in patent EP4678638A1, “NEW E3 UBIQUITIN LIGASE LIGAND, PROTEIN DEGRADATION AGENT AND USE THEREOF” (priority 2023, dated 2024).

Type in all cases: cell-based
In one experiment the target is T1, IKZF3 (Homo sapiens, UniProt Q96SW2+Q9UKT9).
T1 construct: evaluate the effects of the compounds of the present disclosure on the expression of target proteins in cells; endogenous in cells; host or cells: hPBMC
Briefly: Western blot degradation of IKZF3 (hPBMC). The following applies: Table D16. A digest of the protocol: (§1)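 Degradation is assessed by immunoblotting lysates of treated cells. Target bands are quantified by grayscale and normalised to an internal control, so degradation rate equals 100% minus % remaining.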
(In general: A western blot detects proteins with antibodies after separation by electrophoresis.)

The test system of another experiment is MM.1S. As to the kind of experiment: CCK-8 proliferation, MM.1S. The following applies: Homo sapiens, MM1.S, read-out: Inhibitory activity (IC50) on tumor cell proliferation, MM1S. A digest of the protocol:
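CCK-8 viability readout; IC50 from growth-inhibition curve fitting. Cells plated, dosed 24h later with a 10-point series, top 10µM, 5-fold steps. Culture at 37°C, 5% CO2.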

Another experiment has as its target T2, WEE1 (Homo sapiens, UniProt P30291+Q96SW2).
T2 construct: evaluate the effects of the compounds of the present disclosure on the expression of target proteins in cells; endogenous in cells; host or cells: hPBMC
Briefly: Western blot degradation of WEE1 (hPBMC). The following applies: Table D16. A digest of the protocol: as §1

The target in a further experiment is T3, IKZF2 (Homo sapiens, UniProt Q96SW2+Q9UKS7).
T3 construct: evaluate the effects of the compounds of the present disclosure on the expression of target proteins in cells; endogenous in cells; host or cells: hPBMC
As to the kind of experiment: Western blot degradation of IKZF2 (hPBMC). The following applies: Table D16. A digest of the protocol: as §1

The target of another experiment is T4, CK1a (Homo sapiens, UniProt P48729+Q96SW2).
T4 construct: evaluate the effects of the compounds of the present disclosure on the expression of target proteins in cells; endogenous in cells; host or cells: hPBMC
As to the kind of experiment: Western blot degradation of CK1a (hPBMC). The following applies: Table D16. A digest of the protocol: as §1

The target in the next experiment is T5, GSPT1 (Homo sapiens, UniProt P15170+Q96SW2).
T5 construct: evaluate the effects of the compounds of the present disclosure on the expression of target proteins in cells; endogenous in cells; host or cells: hPBMC
As to the kind of experiment: Western blot degradation of GSPT1 (hPBMC). The following applies: Table D16. A digest of the protocol:
as §1

The target of a further experiment is T6, IKZF1 (Homo sapiens, UniProt Q13422+Q96SW2).
T6 construct: evaluate the effects of the compounds of the present disclosure on the expression of target proteins in cells; endogenous in cells; host or cells: hPBMC
Briefly: Western blot degradation of IKZF1 (hPBMC). The following applies: Table D16. Summed up:
as §1

Each structure is given as a SMILES string. pIC50: −log10 of the molar value. Read-outs that look alike come from different tables or passages of the source.

T2 sequence (P30291 whole entry): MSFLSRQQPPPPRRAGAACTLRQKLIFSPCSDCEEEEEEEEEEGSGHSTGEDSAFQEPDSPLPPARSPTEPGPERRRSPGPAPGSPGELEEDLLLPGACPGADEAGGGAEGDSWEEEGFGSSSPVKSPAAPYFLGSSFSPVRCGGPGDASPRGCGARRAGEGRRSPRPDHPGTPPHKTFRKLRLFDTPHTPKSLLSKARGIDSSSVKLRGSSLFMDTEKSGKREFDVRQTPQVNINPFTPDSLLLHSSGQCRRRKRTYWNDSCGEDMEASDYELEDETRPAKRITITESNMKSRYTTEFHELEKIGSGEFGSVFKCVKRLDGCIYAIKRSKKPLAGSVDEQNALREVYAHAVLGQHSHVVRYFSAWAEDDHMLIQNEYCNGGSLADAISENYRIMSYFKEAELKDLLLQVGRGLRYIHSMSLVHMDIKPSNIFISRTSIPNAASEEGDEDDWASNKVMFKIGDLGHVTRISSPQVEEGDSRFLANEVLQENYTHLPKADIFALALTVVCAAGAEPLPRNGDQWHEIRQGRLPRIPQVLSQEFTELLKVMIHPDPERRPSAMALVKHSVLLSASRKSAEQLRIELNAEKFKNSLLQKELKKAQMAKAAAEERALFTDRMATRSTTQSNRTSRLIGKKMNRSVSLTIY
T2 sequence (Q96SW2 whole entry): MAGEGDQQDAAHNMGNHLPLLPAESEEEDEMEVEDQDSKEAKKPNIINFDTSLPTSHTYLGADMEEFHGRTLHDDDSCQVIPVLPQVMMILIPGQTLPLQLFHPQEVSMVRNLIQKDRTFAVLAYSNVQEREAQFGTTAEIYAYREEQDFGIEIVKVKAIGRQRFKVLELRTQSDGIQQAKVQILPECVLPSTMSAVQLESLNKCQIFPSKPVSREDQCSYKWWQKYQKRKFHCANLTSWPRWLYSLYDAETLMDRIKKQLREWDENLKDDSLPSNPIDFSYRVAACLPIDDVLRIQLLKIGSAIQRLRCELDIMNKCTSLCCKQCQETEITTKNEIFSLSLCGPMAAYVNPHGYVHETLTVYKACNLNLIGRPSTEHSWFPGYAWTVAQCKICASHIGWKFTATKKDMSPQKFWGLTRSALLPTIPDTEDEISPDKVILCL
T2 sequence (Q16531 whole entry partner): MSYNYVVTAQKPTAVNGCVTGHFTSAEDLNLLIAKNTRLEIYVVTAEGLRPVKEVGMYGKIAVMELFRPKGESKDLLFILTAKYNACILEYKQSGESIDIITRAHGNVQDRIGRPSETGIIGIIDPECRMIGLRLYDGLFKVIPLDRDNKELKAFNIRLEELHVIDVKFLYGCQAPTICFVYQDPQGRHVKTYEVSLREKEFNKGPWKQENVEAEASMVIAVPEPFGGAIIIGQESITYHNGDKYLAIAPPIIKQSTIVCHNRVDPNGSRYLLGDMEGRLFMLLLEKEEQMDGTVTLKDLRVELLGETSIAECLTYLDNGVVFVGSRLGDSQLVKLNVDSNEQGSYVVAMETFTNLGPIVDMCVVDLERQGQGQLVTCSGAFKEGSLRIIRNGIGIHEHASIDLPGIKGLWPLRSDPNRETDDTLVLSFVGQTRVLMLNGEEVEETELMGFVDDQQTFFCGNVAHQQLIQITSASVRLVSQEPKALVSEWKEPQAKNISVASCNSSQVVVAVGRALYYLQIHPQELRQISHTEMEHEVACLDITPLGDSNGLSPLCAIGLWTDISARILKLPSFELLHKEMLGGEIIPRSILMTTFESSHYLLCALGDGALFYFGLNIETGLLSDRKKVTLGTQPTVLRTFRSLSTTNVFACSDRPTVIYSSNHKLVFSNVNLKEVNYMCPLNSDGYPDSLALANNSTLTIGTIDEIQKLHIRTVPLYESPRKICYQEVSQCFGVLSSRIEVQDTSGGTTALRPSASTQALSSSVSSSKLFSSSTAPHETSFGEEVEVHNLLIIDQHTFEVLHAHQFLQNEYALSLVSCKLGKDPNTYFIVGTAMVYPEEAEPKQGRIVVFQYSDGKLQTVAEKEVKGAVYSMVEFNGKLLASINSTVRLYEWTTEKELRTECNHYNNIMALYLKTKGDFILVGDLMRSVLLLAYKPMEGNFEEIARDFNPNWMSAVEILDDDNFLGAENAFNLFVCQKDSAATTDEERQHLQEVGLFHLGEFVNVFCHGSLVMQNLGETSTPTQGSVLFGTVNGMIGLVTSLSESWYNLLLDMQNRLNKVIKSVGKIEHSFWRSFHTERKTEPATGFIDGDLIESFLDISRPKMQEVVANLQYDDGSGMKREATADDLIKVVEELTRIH
T4 sequence (P48729 whole entry): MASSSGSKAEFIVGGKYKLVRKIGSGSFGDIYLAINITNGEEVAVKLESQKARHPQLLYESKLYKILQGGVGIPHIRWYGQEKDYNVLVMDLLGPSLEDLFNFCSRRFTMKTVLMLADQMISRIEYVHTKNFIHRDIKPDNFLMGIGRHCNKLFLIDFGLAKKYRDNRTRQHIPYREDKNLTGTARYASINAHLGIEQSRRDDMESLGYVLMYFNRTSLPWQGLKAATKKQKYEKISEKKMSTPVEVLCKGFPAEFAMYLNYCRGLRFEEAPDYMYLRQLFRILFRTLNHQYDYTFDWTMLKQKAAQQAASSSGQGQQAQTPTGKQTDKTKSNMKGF
T4 sequence (Q96SW2 whole entry): as the sequence (Q96SW2 whole entry) above
T4 sequence (Q16531 whole entry partner): as the sequence (Q16531 whole entry partner) above
T1 sequence (Q9UKT9 whole entry): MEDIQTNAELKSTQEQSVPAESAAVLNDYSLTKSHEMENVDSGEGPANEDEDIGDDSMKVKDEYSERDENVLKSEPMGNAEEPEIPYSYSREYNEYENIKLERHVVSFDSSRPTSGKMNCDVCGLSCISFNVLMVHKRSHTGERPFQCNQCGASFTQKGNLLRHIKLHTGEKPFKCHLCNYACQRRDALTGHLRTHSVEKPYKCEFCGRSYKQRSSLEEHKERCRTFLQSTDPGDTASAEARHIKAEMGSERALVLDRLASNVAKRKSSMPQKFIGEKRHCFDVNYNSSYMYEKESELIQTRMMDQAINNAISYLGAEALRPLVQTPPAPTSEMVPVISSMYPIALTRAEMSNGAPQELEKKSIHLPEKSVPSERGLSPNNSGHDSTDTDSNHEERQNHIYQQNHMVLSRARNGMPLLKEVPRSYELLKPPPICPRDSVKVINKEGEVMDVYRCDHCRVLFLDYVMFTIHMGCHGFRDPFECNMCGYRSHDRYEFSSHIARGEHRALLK
T1 sequence (Q96SW2 whole entry): as the sequence (Q96SW2 whole entry) above
T1 sequence (Q16531 whole entry partner): as the sequence (Q16531 whole entry partner) above
T5 sequence (P15170 whole entry): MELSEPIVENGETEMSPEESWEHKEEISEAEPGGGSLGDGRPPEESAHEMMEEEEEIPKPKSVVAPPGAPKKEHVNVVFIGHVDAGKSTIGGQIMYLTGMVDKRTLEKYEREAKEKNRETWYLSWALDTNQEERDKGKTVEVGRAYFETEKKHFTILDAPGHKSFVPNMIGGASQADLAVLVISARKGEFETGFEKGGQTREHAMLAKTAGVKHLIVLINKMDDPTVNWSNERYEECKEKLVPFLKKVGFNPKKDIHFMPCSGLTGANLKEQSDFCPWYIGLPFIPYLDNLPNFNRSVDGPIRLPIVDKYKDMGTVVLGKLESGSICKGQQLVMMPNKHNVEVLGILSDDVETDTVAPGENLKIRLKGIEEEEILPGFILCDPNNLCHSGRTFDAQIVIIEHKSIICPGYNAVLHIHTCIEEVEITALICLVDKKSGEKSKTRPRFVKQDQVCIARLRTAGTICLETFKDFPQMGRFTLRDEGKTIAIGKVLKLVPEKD
T5 sequence (Q96SW2 whole entry): as the sequence (Q96SW2 whole entry) above
T5 sequence (Q16531 whole entry partner): as the sequence (Q16531 whole entry partner) above
T6 sequence (Q13422 whole entry): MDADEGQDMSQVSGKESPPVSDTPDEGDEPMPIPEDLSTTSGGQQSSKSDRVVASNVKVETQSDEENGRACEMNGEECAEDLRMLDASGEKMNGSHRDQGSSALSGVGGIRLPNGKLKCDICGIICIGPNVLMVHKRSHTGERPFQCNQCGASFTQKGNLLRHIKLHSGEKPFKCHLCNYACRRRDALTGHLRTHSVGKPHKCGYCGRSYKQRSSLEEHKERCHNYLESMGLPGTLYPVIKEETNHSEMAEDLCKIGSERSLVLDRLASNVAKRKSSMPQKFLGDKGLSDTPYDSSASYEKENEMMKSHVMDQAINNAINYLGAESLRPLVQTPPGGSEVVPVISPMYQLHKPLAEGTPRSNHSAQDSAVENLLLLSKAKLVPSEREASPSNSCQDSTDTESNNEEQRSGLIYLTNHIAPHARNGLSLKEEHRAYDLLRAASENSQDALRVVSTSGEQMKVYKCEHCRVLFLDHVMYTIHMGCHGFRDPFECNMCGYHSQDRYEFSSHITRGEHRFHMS
T6 sequence (Q96SW2 whole entry): as the sequence (Q96SW2 whole entry) above
T6 sequence (Q16531 whole entry partner): as the sequence (Q16531 whole entry partner) above

Turning to `CC(C)(C)[Si](C)(C)OCc1ccc(NC2CCC(=O)NC2=O)nc1` (stereo not shown) [GT-07552, 3-((5-(((tert-Butyldimethylsilyl)oxy)methyl)pyridin-2-yl)amino)piperidine-2,6-dione], the “Degradation of substrate protein IKZF3 (substrate protein remaining %)” value at IKZF3 is “B (B is defined as substrate protein remaining % > 80%)”. In the experiment with MM.1S (72 h), the pIC50 was 5.30 to 6.00. Also, on WEE1, the “Degradation of substrate protein WEE1 (substrate protein remaining %)” value is recorded as “B (B is defined as substrate protein remaining % > 80%)”. Also, the “Degradation of substrate protein IKZF2 (substrate protein remaining %)” value at IKZF2 is “A (A is defined as 0% ≤ substrate protein remaining % ≤ 80%)”. Also, the “Degradation of substrate protein CKla (substrate protein remaining %)” value at CK1a is “B (B is defined as substrate protein remaining % > 80%)”. In addition, the “Degradation of substrate protein GSPT1 (substrate protein remaining %)” value on GSPT1 is given as “B (B is defined as substrate protein remaining % > 80%)”. In addition, the “Degradation of substrate protein IKZF1 (substrate protein remaining %)” value at IKZF1 is on record as “B (B is defined as substrate protein remaining % > 80%)”.

With `O=Cc1ccnc(NC2CCC(=O)NC2=O)c1` (stereo not shown) [GT-07553, 2-((2,6-Dioxopiperidin-3-yl)amino)isonicotinaldehyde], the “Degradation of substrate protein IKZF3 (substrate protein remaining %)” value at IKZF3 was “B (B is defined as substrate protein remaining % > 80%)”. Also, the pIC50 in the experiment on MM.1S (CCK-8, 72 hours) is 5.30 to 6.00. Besides, on WEE1, the “Degradation of substrate protein WEE1 (substrate protein remaining %)” value is reported as “A (A is defined as 0% ≤ substrate protein remaining % ≤ 80%)”. The “Degradation of substrate protein IKZF2 (substrate protein remaining %)” value at IKZF2 is given as “A (A is defined as 0% ≤ substrate protein remaining % ≤ 80%)”. For the same molecule, on CK1a, the “Degradation of substrate protein CKla (substrate protein remaining %)” value was “B (B is defined as substrate protein remaining % > 80%)”. The “Degradation of substrate protein GSPT1 (substrate protein remaining %)” value on GSPT1 is “B (B is defined as substrate protein remaining % > 80%)”. In addition, at IKZF1, the “Degradation of substrate protein IKZF1 (substrate protein remaining %)” value is “A (A is defined as 0% ≤ substrate protein remaining % ≤ 80%)”.

With `O=C1CCN(c2cnc(CCl)c(F)c2)C(=O)N1` [GT-07557, 1-(6-(Chloromethyl)-5-fluoropyridin-3-yl)dihydropyrimidine-2,4(1H,3H)-dione], at IKZF3, the “Degradation of substrate protein IKZF3 (substrate protein remaining %)” value was “B (B is defined as substrate protein remaining % > 80%)”. Further, the pIC50 in the experiment with MM.1S (CCK-8, 72 hours) is 5.30 to 6.00. In addition, on WEE1, the “Degradation of substrate protein WEE1 (substrate protein remaining %)” value is on record as “A (A is defined as 0% ≤ substrate protein remaining % ≤ 80%)”. Further, the “Degradation of substrate protein IKZF2 (substrate protein remaining %)” value at IKZF2 is “B (B is defined as substrate protein remaining % > 80%)”. The “Degradation of substrate protein CKla (substrate protein remaining %)” value at CK1a is “A (A is defined as 0% ≤ substrate protein remaining % ≤ 80%)”. Moreover, at GSPT1, the “Degradation of substrate protein GSPT1 (substrate protein remaining %)” value was “B (B is defined as substrate protein remaining % > 80%)”. Besides, the “Degradation of substrate protein IKZF1 (substrate protein remaining %)” value on IKZF1 was “A (A is defined as 0% ≤ substrate protein remaining % ≤ 80%)”.

For `O=C1CCC(c2ccc(CO)nn2)C(=O)N1` (stereo not shown) [GT-07636, 3-(6-(Hydroxymethyl)pyridazin-3-yl)piperidine-2,6-dione], the “Degradation of substrate protein IKZF3 (substrate protein remaining %)” value on IKZF3 is “A (A is defined as 0% ≤ substrate protein remaining % ≤ 80%)”. Also, in the experiment on MM.1S (CCK-8, 72 hours), the pIC50 was 5.30 to 6.00. The “Degradation of substrate protein WEE1 (substrate protein remaining %)” value at WEE1 was “B (B is defined as substrate protein remaining % > 80%)”. At IKZF2, the “Degradation of substrate protein IKZF2 (substrate protein remaining %)” value is “A (A is defined as 0% ≤ substrate protein remaining % ≤ 80%)”. In addition, at CK1a, the “Degradation of substrate protein CKla (substrate protein remaining %)” value is “B (B is defined as substrate protein remaining % > 80%)”. Further, the “Degradation of substrate protein GSPT1 (substrate protein remaining %)” value at GSPT1 is “A (A is defined as 0% ≤ substrate protein remaining % ≤ 80%)”. Also, the “Degradation of substrate protein IKZF1 (substrate protein remaining %)” value at IKZF1 is recorded as “A (A is defined as 0% ≤ substrate protein remaining % ≤ 80%)”.
